The target in the assay is T1, Human CARM1 (PRMT4) (Homo sapiens, UniProt Q86X55).
T1 construct: Flag-CARM1-His; made in house; host or cells: HEK 293F cells (BacMam baculovirus, pFastBacMam)
T1 sequence (Q86X55 2-585 isoform Q86X55-1): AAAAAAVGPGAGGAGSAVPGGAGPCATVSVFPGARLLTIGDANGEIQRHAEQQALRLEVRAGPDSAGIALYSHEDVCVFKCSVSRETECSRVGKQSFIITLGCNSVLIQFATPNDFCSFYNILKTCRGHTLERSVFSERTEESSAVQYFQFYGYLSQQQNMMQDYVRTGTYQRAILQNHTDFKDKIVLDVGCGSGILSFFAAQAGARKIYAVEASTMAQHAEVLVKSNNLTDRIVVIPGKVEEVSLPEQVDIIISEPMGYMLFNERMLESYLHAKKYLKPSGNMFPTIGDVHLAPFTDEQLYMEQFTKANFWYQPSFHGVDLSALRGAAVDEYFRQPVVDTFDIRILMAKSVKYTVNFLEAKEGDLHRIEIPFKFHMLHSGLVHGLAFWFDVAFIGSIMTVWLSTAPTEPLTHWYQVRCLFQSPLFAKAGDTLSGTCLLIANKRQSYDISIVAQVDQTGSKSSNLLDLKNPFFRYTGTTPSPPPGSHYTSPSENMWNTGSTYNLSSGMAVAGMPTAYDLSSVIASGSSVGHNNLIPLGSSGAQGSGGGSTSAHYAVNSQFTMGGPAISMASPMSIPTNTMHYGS
Kind of assay: CARM1 biochemical assay (3H-SAM Flashplate, peptide substrate). Conditions: read-out: CARM1_ IC50. The method in brief:
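FLAG/His-tagged human CARM1 (isoform 1, Δ539-561, baculovirus-expressed), 0.25 nM, preincubated 30 min at room temperature with compound (2% DMSO) in 20 mM Bicine pH 7.6, then reacted with 30 nM 3H-SAM and 250 nM biotinylated H3 16-30 peptide (R26 monomethyl). Stopped with 300 uM cold SAM; labelled peptide captured on streptavidin Flashplate; % inhibition versus DMSO and 1 mM SAH controls fitted to a 4- or 3-parameter curve.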

Structures are written as SMILES.

Consider `NCCNCc1ccc(-c2cnc3c(c2)CCC(=O)N3)cc1` [Compound 156], for which the IC50 was 2610 nM.
Under `CC(C)n1ncc2c(C(=O)NCc3ccccc3F)cc(-c3cccc(CNCCN)c3)nc21` [Compound 159] stands 175 nM.
Under `CC(C)n1ncc2c(C(=O)NCC3CCN(C)CC3)cc(-c3cccc(CN(C)CCN(C)C)c3)nc21` [Compound 162] stands 91.6 nM.
Under `CC(C)n1ncc2c(C(=O)NCc3ccc(F)cc3)cc(-c3cccc(CN(C)CCN)c3)nc21` [Compound 25] stands 32.9 nM; under `CC(C)n1cc2c(N)cc(-c3cccc(CN(C)CCN)c3)nc2n1` [Compound 13], 1710 nM; under `CCn1ncc2c(C(=O)N[C@@H](C)c3ccccc3)cc(-c3cccc(CN(C)CCNC)c3)nc21` [Compound 33], 79.7 nM.
Regarding `CN(CCN)Cc1cccc(-c2nc(NCc3cccnc3)c3cnn(C4CC4)c3n2)c1` [Compound 40], the half-inhibitory concentration (IC50) was 7.14 nM.
Under `CC(C)n1ncc2c(C(=O)NCc3ccccc3)cc(-c3cccc(CN(C)CCN)c3)cc21` [Compound 14] stands 135 nM; under `CC(C)n1cnc2cc(-c3cccc(CN(C)CCN)c3)ccc21` [Compound 32], 7040 nM.
Regarding `CNCCN(C)Cc1cccc(-c2ccc3c(c2)ncn3CCOC)c1` [Compound 34], the half-inhibitory concentration (IC50) was 10000 nM.
Consider `CC(C)n1ncc2c(C(=O)N(C)Cc3ccccc3)cc(-c3cccc(CN(C)CCN)c3)nc21` [Compound 31], for which the IC50 turned out to be 21.7 nM.
Under `CNCCN(C)Cc1cccc(-c2cc(C(=O)NCc3ccccc3F)c3cnn(C(C)C)c3n2)c1` [Compound 38] stands 18.7 nM; under `CC(C)n1ncc2c(C(=O)NCc3ccncc3)cc(-c3cccc(CNCCN)c3)nc21` [Compound 150], 274 nM; under `NCCNCc1ccc(-c2cnc3c(c2)OCC(=O)N3)cc1` [Compound 358], 6290 nM.
Consider `CC(C)n1ncc2c(C(=O)NCc3ccccc3)cc(-c3cccc(CNCCN)c3)cc21` [Compound 134], for which the 50% inhibitory concentration (IC50) amounted to 334 nM.
With `CNCCN(C)Cc1cccc(-c2cc(C(=O)N[C@@H](C)c3ccccc3)c3cnn(C(C)C)c3n2)c1` [Compound 44], the IC50 was determined as 18.6 nM.
Under `Cc1cccc(CCn2cnc3ccc(-c4ccc(CNCCN)cc4)cc32)c1` [Compound 143] stands 5620 nM; under `COc1cccc(Cc2nc3ccc(-c4ccc(CNCCN)cc4)cc3n2C(C)C)c1` [Compound 135], 4920 nM; under `CC(C)n1ncc2c(C(=O)NCc3ccccc3)cc(-c3cccc(CNCCN)c3)nc21` [Compound 155], 115 nM.
Under `Cc1ccc(-n2cnc3cc(-c4ccc(CNCCN)cc4)ccc32)cc1` [Compound 131] stands 2840 nM; under `Cc1nn(C(C)C)c2nc(-c3cccc(CN(C)CCN)c3)cc(N3CCOCC3)c12` [Compound 22, N1-(3-(1-isopropyl-3-methyl-4-morpholino-1H-pyrazolo[3,4-b]pyridin-6-yl)benzyl)-N1-methylethane-1,2-diamine], 8.97 nM; under `CNCCN(C)Cc1cccc(-c2cc(NS(C)(=O)=O)c3cnn(C(C)C)c3n2)c1` [Compound 170], 264 nM.
As for `CC(C)n1ncc2c(C(=O)NCc3c(F)cccc3F)cc(-c3cccc(CN(C)CCN)c3)nc21` [Compound 37], the IC50 was determined as 5.47 nM.
Under `CC(C)n1ncc2c(C(=O)N3CCc4ccccc4C3)cc(-c3cccc(CN(C)CCN)c3)nc21` [Compound 23] stands 185 nM.
The same measure for `CC(C)n1ncc2c(NC3CC3)cc(-c3cccc(CN(C)CCN)c3)nc21` [Compound 41]: 13.4 nM.
Under `CNCCN(C)Cc1cccc(-c2cc(NS(=O)(=O)C(F)(F)F)c3cnn(C(C)C)c3n2)c1` [Compound 164] stands 358 nM.
As to `CC(C)n1cnc2ccc(-c3ccc(CNCCN)cc3)cc21` [Compound 166], the IC50 came out at 31700 nM.
Under `COc1ccc(Cn2cnc3ccc(-c4ccc(CNCCN)cc4)cc32)cc1` [Compound 132] stands 7210 nM.

Values taken from patent publication US20170280720A1, “ARGININE […] INHIBITORS AND USES THEREOF” (EPIZYME, INC., priority 2014, published 2017).
